Results: ChEMBL document CHEMBL5528086, “Unraveling the Promise of RET Inhibitors in Precision Cancer Therapy by Targeting RET Mutations” (J Med Chem, 2024)

How the values were obtained:
[1] = target: ALK tyrosine kinase receptor (Homo sapiens, UniProt Q9UM73); experiment: Inhibition of wild type ALK (unknown origin) by enzymatic assay
[2] = target: T1, Proto-oncogene tyrosine-protein kinase receptor Ret (Homo sapiens, UniProt P07949); experiment: Inhibition of wild type His-tagged human RET by ADP-Glo assay
[3] = target: Proto-oncogene tyrosine-protein kinase receptor Ret (Homo sapiens, UniProt P07949, V804L); experiment: Inhibition of RET V804L mutant (unknown origin)
[4] = target: T1, Proto-oncogene tyrosine-protein kinase receptor Ret; experiment: Inhibition of GST-tagged wild type RET (unknown origin) expressed in Sf9 cells
[5] = target: T2, Proto-oncogene tyrosine-protein kinase receptor Ret (Homo sapiens, UniProt P07949, V804M); experiment: Inhibition of RET V804M mutant (unknown origin) expressed in Sf9 cells by enzymatic assay
[6] = target: Proto-oncogene tyrosine-protein kinase receptor Ret (Homo sapiens, UniProt P07949, G810A); experiment: Inhibition of RET G810A mutant (unknown origin)
[7] = target: Proto-oncogene tyrosine-protein kinase receptor Ret (Homo sapiens, UniProt P07949, G810D); experiment: Inhibition of RET G810D mutant (unknown origin)
[8] = target: Proto-oncogene tyrosine-protein kinase receptor Ret (Homo sapiens, UniProt P07949, G810S); experiment: Inhibition of RET G810S mutant (unknown origin)
[9] = target: Proto-oncogene tyrosine-protein kinase receptor Ret (Homo sapiens, UniProt P07949, G810V); experiment: Inhibition of RET G810V mutant (unknown origin)
[10] = target: Proto-oncogene tyrosine-protein kinase receptor Ret (Homo sapiens, UniProt P07949, G810C); experiment: Inhibition of RET G810C mutant (unknown origin)
[11] = target: Proto-oncogene tyrosine-protein kinase receptor Ret (Homo sapiens, UniProt P07949, G810R); experiment: Inhibition of RET G810R mutant (unknown origin)
[12] = Inhibition of CCDC6-RET (unknown origin)
[13] = target: Vascular endothelial growth factor receptor 2 (Homo sapiens, UniProt P35968); experiment: Inhibition of wild type VEGFR2 (unknown origin) expressed in baculovirus infected insect cells using biotinylated-GGGGQDGKDYIVLPI peptide as substrate incubated for 1 to 4 hrs by TRF assay; design: species or system Insect cell
[14] = target: T2, Proto-oncogene tyrosine-protein kinase receptor Ret; experiment: Inhibition of RET V804M mutant (unknown origin) by KINOMEscan assay
[15] = target: T1, Proto-oncogene tyrosine-protein kinase receptor Ret; experiment: Inhibition of wild type human RET by KINOMEscan assay
[16] = tested on: Proto-oncogene tyrosine-protein kinase receptor Ret (Homo sapiens), P07949 [S904F]; experiment: Inhibition of RET S904F mutant (unknown origin) at 1 nM relative to control
[17] = tested on: Proto-oncogene tyrosine-protein kinase receptor Ret (Homo sapiens), P07949 [V804L]; experiment: Inhibition of RET V804L mutant (unknown origin) at 4 nM by enzymatic assay relative to control
[18] = Antiproliferative activity against human LC2 cells assessed as reduction in cell growth measured for 48 hrs by MTT assay; format: functional, cell-based; settings: LC2, 48 h
[19] = target: Coiled-coil domain-containing protein 6/Tyrosine-protein kinase receptor RET (Homo sapiens, UniProt P07949); experiment: Inhibition of CCDC6-RET (unknown origin); format: protein assay
[20] = target: T1, Proto-oncogene tyrosine-protein kinase receptor Ret; experiment: Inhibition of full length His-tagged human recombinant RET expressed in baculovirus infected Sf9 cells
[21] = tested on: Proto-oncogene tyrosine-protein kinase receptor Ret (Homo sapiens), P07949 [V804L]; experiment: Inhibition of RET V804L mutant (unknown origin) at 4 nM relative to control

T1 sequence (P07949 whole entry): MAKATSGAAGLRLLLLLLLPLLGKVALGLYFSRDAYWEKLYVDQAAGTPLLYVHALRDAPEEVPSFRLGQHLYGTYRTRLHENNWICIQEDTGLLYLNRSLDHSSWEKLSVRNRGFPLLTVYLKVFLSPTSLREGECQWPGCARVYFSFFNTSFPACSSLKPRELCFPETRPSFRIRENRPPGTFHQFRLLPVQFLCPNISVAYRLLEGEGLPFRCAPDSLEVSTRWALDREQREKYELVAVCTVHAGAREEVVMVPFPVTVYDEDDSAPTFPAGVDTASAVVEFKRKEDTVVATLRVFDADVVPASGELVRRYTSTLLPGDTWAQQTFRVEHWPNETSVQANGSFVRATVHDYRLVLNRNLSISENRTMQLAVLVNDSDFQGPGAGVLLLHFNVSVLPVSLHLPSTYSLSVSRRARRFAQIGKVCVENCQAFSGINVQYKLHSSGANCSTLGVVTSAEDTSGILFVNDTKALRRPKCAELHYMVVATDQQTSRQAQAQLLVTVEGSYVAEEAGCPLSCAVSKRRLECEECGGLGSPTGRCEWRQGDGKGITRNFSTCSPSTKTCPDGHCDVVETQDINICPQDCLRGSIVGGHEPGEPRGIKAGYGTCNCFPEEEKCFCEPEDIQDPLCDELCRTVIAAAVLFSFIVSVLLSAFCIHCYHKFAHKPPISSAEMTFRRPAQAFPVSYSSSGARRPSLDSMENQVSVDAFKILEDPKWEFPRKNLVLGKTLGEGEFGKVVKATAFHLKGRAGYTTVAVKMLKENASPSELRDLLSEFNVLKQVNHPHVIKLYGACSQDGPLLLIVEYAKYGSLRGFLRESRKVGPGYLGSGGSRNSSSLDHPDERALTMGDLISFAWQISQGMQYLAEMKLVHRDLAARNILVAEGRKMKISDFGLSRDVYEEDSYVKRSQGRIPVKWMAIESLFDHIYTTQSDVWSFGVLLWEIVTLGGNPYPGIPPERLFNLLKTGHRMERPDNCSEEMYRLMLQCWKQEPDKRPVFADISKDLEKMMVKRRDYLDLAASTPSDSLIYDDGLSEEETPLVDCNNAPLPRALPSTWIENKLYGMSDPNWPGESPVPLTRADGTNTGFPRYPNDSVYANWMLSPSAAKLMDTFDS
Chain of Proto-oncogene tyrosine-protein kinase receptor Ret (Homo sapiens), P07949 [V804L] (P07949 whole entry V804L): as the sequence (P07949 whole entry) above, with V804L counted along it
T2 sequence (P07949 29-1114 V804M limits assumed): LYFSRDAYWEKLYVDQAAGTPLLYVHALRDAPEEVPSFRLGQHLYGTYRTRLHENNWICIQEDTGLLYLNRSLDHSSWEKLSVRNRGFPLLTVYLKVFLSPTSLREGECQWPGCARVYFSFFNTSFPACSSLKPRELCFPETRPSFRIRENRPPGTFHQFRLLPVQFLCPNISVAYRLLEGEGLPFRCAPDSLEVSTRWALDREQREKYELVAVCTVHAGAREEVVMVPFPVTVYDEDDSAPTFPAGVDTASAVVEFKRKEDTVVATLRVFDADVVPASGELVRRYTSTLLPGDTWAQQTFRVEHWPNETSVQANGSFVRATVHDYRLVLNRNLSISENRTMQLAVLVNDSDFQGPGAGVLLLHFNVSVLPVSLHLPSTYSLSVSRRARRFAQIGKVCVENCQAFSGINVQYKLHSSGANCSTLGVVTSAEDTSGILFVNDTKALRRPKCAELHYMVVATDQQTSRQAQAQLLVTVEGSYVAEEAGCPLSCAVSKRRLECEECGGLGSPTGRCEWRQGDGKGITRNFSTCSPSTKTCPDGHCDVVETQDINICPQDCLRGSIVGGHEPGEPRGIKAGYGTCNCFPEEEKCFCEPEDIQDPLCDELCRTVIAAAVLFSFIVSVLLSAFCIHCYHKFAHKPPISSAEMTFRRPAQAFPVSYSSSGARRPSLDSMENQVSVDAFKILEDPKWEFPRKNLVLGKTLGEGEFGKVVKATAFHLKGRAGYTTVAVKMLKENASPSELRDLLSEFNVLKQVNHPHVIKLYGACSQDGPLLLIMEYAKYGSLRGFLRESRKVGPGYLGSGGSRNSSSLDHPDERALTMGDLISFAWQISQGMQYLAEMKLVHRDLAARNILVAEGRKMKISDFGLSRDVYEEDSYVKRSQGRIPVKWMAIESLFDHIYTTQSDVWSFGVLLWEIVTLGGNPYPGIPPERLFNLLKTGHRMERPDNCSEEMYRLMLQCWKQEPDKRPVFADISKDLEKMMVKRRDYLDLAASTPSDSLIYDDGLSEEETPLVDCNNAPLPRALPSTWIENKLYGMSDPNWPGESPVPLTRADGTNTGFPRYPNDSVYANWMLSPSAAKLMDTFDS
Chain of Coiled-coil domain-containing protein 6/Tyrosine-protein kinase receptor RET (P07949 whole entry, the tested form may be a part): as the sequence (P07949 whole entry) above
Chain of Coiled-coil domain-containing protein 6/Tyrosine-protein kinase receptor RET (Q16204 whole entry, further chain, the tested form may be a part): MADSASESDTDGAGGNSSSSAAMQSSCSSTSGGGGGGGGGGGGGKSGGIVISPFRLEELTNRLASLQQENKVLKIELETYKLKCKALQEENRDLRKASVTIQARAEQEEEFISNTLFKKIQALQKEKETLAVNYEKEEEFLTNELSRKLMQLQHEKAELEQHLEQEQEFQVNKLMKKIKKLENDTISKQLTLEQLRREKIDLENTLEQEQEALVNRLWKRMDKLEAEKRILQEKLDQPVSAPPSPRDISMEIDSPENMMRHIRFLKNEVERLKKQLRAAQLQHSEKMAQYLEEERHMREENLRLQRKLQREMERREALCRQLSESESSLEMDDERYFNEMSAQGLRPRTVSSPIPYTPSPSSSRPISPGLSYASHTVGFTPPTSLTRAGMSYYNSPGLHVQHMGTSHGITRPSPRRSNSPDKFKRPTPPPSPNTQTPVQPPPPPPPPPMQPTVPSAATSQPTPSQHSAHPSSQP

Q: With `CCc1cc2c(cc1-c1ccn(CCCN(C)C)n1)C(C)(C)c1[nH]c3cc(C#N)ccc3c1C2=O` as the compound, how does the IC50 [1] read?
A: 0.1 nM

Q: And the IC50 [2]?
A: 2 nM

Q: What about the IC50 [3] of the same compound?
A: 9 nM

Q: With `Cc1nc2cnc(N)c(C#Cc3cncc(C(=O)Nc4ccc(CN5CCN(C)CC5)c(C(F)(F)F)c4)c3)c2nc1C` as the compound, how does the IC50 [4] read?
A: 1.76 nM

Q: What about the IC50 [5] of the same compound?
A: 15.1 nM

Q: And the IC50 [6]?
A: 1.88 nM

Q: What about the IC50 [7] of the same compound?
A: 7.98 nM

Q: And the IC50 [8]?
A: 10.1 nM

Q: What about the IC50 [9] of the same compound?
A: 3.6 nM

Q: What about the IC50 [10] of the same compound?
A: 11.6 nM

Q: What about the IC50 [11] of the same compound?
A: 18 nM

Q: With `CC1(C)c2cc(C3CCN(CC4CCOCC4)CC3)ccc2C(=O)c2c1[nH]c1cc(C#N)ccc21` as the compound, how does the IC50 [12] read?
A: 43.6 nM

Q: For `Cn1cc(-c2ccc3c(c2)ncn3-c2ccc(CC(=O)Nc3cc(C(C)(C)C)on3)cc2)cn1`, which IC50 [13] is on record?
A: < 1 nM

Q: And the IC50 [14]?
A: < 1 nM

Q: And the IC50 [15]?
A: < 1 nM

Q: Which inhibition [16] does the source give for `CN1CCN(Cc2ccc(NC(=O)c3cncc(C#Cc4cnc(N)c5ncccc45)c3)cc2C(F)(F)F)CC1` here?
A: 60%

Q: And the inhibition [17]?
A: 98%

Q: And the IC50 [18]?
A: 3 nM

Q: And the IC50 [19]?
A: 3 nM

Q: And the IC50 [20]?
A: 3.16 nM

Q: For `Cc1ccc(C(=O)Nc2ccc(CN3CCN(C)CC3)c(C(F)(F)F)c2)cc1C#Cc1cnc(N)c2ncccc12`, which inhibition [21] is on record?
A: 40%
